Assay results: patent US12465615B2, “Aqueous solutions containing purines and pyrimidines and uses thereof” (UCB BIOSCIENCES, INC., priority 2021, dated 2025)

Assays:
Type in all cases: physicochemical
[1] = pH of thymidine suspensions after stirring
Experimental: (§1) The procedure involved adding 300 mg of the thymidine to 3.0 mL of liquid and stirring. The three liquids were water, water wherein 50 mg/mL of deoxycytidine had already been dissolved, and water buffered at about pH 3. The pH 3 buffered water was created by adding 821 mg of anhydrous citric acid and 213 mg of sodium citrate dehydrate to a 100 mL volumetric flask and adding water to the 100 mL mark while dissolving the solids. The deoxycytidine solution was created by adding 500 mg of deoxycytidine to a 10 mL volumetric flask and filling the flask with water while dissolving the solids, yielding a pH of 8.23 and a deoxycytidine concentration of about 50 mg/mL.
(§2) The liquids were stirred and samples were withdrawn at 5 mins, 10 mins, and 24 hours. At each time period 0.7 mL of the suspension was removed and subjected to filtration through a 0.45 μm PTFE filter, and 0.3 mL of the suspension was removed and centrifuged at 10,000 rpm for 2 minutes. The filtrate from the filtration and the supernatant from the centrifugation were subjected to high performance liquid chromatography (HPLC) to determine the amount of dissolved thymidine.
The pH of the suspensions were also recorded.

[2] = Reconstitution of thymidine in water with differing amounts of deoxycytidine (HPLC content after 2 minutes of mixing); settings: 6000 mg dT in 120 mL water
Experimental: The solubility of thymidine in combination with different amounts of deoxycytidine was determined using HPLC and reconstitution methods as described below.
Each 50 mg/mL stock solution was prepared by adding 120 mL of purified water to a 400 mL beaker, stirring the water at 650 rpm, and then adding the amounts of thymidine and/or deoxycytidine as listed in the Table 3 below for each sample to form mixtures.
Each mixture was stirred at 650 rpm for about 1 minute, after which the stirring was reduced to 150 rpm and maintained at 150 rpm for about 1 minute. After about 2 minutes total, the mixture was filtered through a 0.45 μm syringe filter to obtain filtered stock solutions for each sample.
0.9 mg/mL intermediate solutions of each of the above samples were prepared by adding 1.0 mL of the respective filtered stock solution into a 50 mL volumetric flask and diluting to volume with a diluent (e.g., water) and mixing.
0.09 mg/mL working solutions of each of the above samples were prepared by adding 1.0 mL of the respective intermediate solution into a 10 mL volumetric flask and diluting to volume with a diluent (e.g., water) and mixing. The resulting mixture was transferred to an HPLC vial.
Working solutions for each of the above samples were subjected to HPLC analysis utilizing the conditions and parameters below and in Table 4. The data collected from the HPLC analysis was then used to calculate percent content of thymidine dissolved for each sample after 2 minutes of mixing. • Mobile Phase A: Purified Water (degassed by sonication) • […] (degassed by sonication)
[formula] • ASample=Peak area of dC or dT in the sample solution • WStd=Weight of dC or dT reference material [mg] • PurityStd=Purity of dC or dT reference material in %/100 • VSample=Dilution of sample solution corrected with dC or dT [mL] • LCFW=Correction factor of Label Claim and fill weight/0.4825 (2000 mg/4145 mg) • AStd=Mean peak area of dC or dT in the 6 injections of Std1 at beginning • WSample=Weight of sample (mg) • VStd=Dilution of standard solution [mL]/50 mL • 100=Conversion in % Results
The dC Level is the percentage of the mass of dC relative to dT. The dT Content is the percentage of dT in solution within 2 minutes of stirring in the presence of the indicated dC level.

[3] = Solubility of thymidine in aqueous liquids (300 mg in 3.0 mL, stirring, HPLC)
Excerpt: The solubility of thymidine was investigated wherein the dissolving liquid was water, pH 3 buffered water, and deoxycytidine containing water. The deoxycytidine employed in the solubility studies is referred to as Form A deoxycytidine, e.g. as described in U.S. Patent Publication 2021/0054014, which is incorporated herein by reference. Form A deoxycytidine is characterized by an X-ray diffraction pattern comprising peaks at 8.4, 12.9, 14.2, 16.8, 18.4, 19.4, 28.4, 30.0, and 30.6 degrees two-theta (2θ) (+/−0.2). The X-ray diffraction pattern can be recorded using CuKα1 radiation.
as §1, §2
Solubilities are reported in mg/mL.

[4] = Water with 50 mg/mL of deoxycytidine, stirring 24 hrs
[5] = pH 3 buffered water, stirring 10 mins
[6] = pH 3 buffered water, stirring 24 hrs

- pH of suspensions ([1]; Water with 50 mg/mL of deoxycytidine, stirring 5 mins): 7.3
- pH of suspensions ([1]; Water with 50 mg/mL of deoxycytidine, stirring 10 mins): 7.1
- pH of suspensions [1, 4]: 7.3
- pH of suspensions ([1]; Water, stirring 5 mins): 7.3
- pH of suspensions ([1]; Water, stirring 10 mins): 7.3
- pH of suspensions ([1]; Water, stirring 24 hrs): 7.3
- pH of suspensions ([1]; pH 3 buffered water, stirring 5 mins): 3.2
- pH of suspensions [1, 5]: 3.1
- pH of suspensions [1, 6]: 3.1
- dT Content (percentage of dT in solution within 2 minutes of stirring) ([2]; dC Level 0 % (mass of dC relative to dT)): 89.09%
- dT Content (percentage of dT in solution within 2 minutes of stirring) ([2]; dC Level 10 %): 93.39%
- dT Content (percentage of dT in solution within 2 minutes of stirring) ([2]; dC Level 20 %): 92.69%
- dT Content (percentage of dT in solution within 2 minutes of stirring) ([2]; dC Level 40 %): 95.68%
- dT Content (percentage of dT in solution within 2 minutes of stirring) ([2]; dC Level 80 %): 96.78%
- dT Content (percentage of dT in solution within 2 minutes of stirring) ([2]; dC Level 100 %): 95.91%
- thymidine solubility higher than the thymidine solubility in water ([3]; 50 mg/mL deoxycytidine solution versus water, 5 minutes): about 38%
- Dissolved thymidine [3, 4]: 65.62 mg/mL
- Dissolved thymidine ([3]; Water, stirring 24 hrs): 51.04 mg/mL
- thymidine solubility higher than in water ([3]; deoxycytidine liquid versus water, 10 minutes): about 58%
- Dissolved thymidine [3, 5]: 59.66 mg/mL
- Dissolved thymidine [3, 6]: 52.04 mg/mL
SMILES: Cc1cn([C@H]2C[C@H](O)[C@@H](CO)O2)c(=O)[nH]c1=O [thymidine]
